One test has as its system HCT116 cells. The test is described as follows: MTT proliferation assay HCT116. The settings on record: 24 and 48 h; MC3353 from 0.5 μM after 48 h; DAC at 10 μM. In kind it is cell-based, human. Here is the method:
(§1) The MTT [3-(4,5-dimethylthiazol-2-yl)-2,5-diphenyltetrazolium bromide] (Sigma-Aldrich, Milan, Italy) assay was used to determine the proliferation of HCT116 clone and DKO HCT116 cells after treatment with MC3353, 5-AZA, and DAC. 5 × 10^4 cells/well for both cell lines were plated in 24-well plate and treated, in duplicate, with compounds at several concentrations for 24 and 48 h of induction. After treatments, MTT solution was added for 3 h at 0.5 mg/mL, the purple formazan crystals were dissolved in DMSO (Sigma-Aldrich, Milan, Italy), and the absorbance was read at a wavelength of 570 nm with reader TECAN M-200.
In general terms: Formazan colour is commonly taken as a measure of viable cells.

Test [1] concerns double DNMT knockout (DKO) HCT116 cells. The test is described as follows: MTT proliferation assay DKO HCT116. The format is cell-based, human. Particulars: 24 and 48 h; MC3353 at 0.5 μM after 48 h; DAC, 5-AZA up to highest dose. Here is the method: DKO HCT116 (ATCC, VA, USA) cells were propagated in Dulbecco’s modified Eagle medium (DMEM) (Euroclone, Milan, Italy) with 10% fetal bovine serum (FBS; Euroclone, Milan, Italy), 2 mM L-glutamine (Euroclone, Milan, Italy) and antibiotics (100 U/mL penicillin, 100 µg/mL streptomycin) (Euroclone, Milan, Italy).
as §1

For test [2], the system named is MMP2 mRNA in HCT116 cells. Briefly: qPCR of MMP2 in HCT116. In kind it is cell-based, human. The settings on record: MC3353 0.1 and 1 μM 24 h; 5-AZA, DAC 5 days, also at 0.1 to 1 μM. An excerpt: (§2) RNAs were extracted by ReliaPrep™ RNA Tissue Miniprep (Promega, Madison, WI, USA) and reverse transcribed with PrimeScript RT Master Mix (Takara, Kusatsu, Shiga, Japan). cDNAs were amplified by a qPCR reaction using GoTaq qPCR Master Mix (Promega) and analyzed with the oligonucleotide pairs specific for the target genes. Relative amounts, determined with the 2^(−ΔCt) method, were normalized with respect to the human housekeeping gene L32. The primers used are as follows: L32 (forward: 5′-[…]-3′, reverse: 5′-[…]-3′), E-cadherin (forward: 5′-[…]-3′, reverse: 5′-[…]-3′), and MMP2 (forward: 5′-[…]-3′, reverse: 5′-[…]-3′).
(§3) Prompted by these findings, we investigated the ability of MC3353 to modulate EMT pathway, using 5-AZA and DAC as reference drugs. […] The levels of mRNA transcripts of E-cadherin and matrix metalloproteinase-2 (MMP2) were determined. E-cadherin is involved in the maintenance of the epithelial identity and in the control of tumor invasiveness, whereas MMP2, through degradation of type IV collagen, the most abundant component of the basement membrane, controls an essential step for metastatic progression of most cancers as well as for induction of angiogenesis.
(In general: Real-time PCR tracks product formation cycle by cycle.)

The test system of another test is MMP2 mRNA in PC-3 cells. The test is described as follows: qPCR of MMP2 in PC-3. The format is cell-based, human. The settings on record: MC3353 0.1 and 1 μM 24 h; 5-AZA, DAC 5 days, also at 0.1 to 1 μM.
Description: as §2, §3

The next test has as its system IOR/OS20. The test is described as follows: Osteosarcoma cell growth inhibition (trypan blue count). In kind it is cell-based. The settings on record: Homo sapiens; 96 h of treatment; read-out: IC50 ± SD, cellular viability, IOR/OS20. The source says:
(§4) The patient-derived human OS cell lines Saos-2, U-2OS, and MG-63 were obtained from ATCC (1992). The patient-derived OS cell lines IOR/OS9, IOR/OS20, and IOR/SARG were established and previously characterized at the Laboratory of Experimental Oncology of Rizzoli Orthopedic Institute. Cell lines were profiled for DNA copy number changes and DNA methylation status at approximately 27,000 CpG sites. The cell line PDX-OS#1-C4 was obtained from OS patient-derived xenograft (PDX) after 4 passages in the animal. All cell lines were tested for mycoplasma contamination (Mycoalert Mycoplasma Detection Kit, Lonza, Verviers, Belgium) before use and authenticated by short-tandem repeat polymerase chain reaction (STR PCR) analysis (last control December 2017) using PowerPlex ESX fast System kit (Promega, Madison, WI, USA). The following loci were verified: AMEL, D3S1358, TH01, D21S11, D18S51, D10S1248, D1S1656, D2S1338, D16S539, D22S1054, VWA, D8S1179, FGA, D2S441, D12S391, D19S433, and SE33. All cell lines were immediately amplified to constitute liquid nitrogen stocks and were never passaged for more than 1 month upon thawing. Cells were maintained in Iscove’s modified Dulbecco’s medium (IMDM) supplemented with 10% heat-inactivated FBS (Lonza, Verviers, Belgium), penicillin (20 U/mL), and streptomycin (100 μg/mL) (Sigma-Aldrich, Milan, Italy) in 37 °C humidified at 5% CO2.
(§5) To perform osteosarcoma cell growth inhibition experiments, 2 × 10^5 cells/well were plated, and MC3353 (0.1–30 μM) or DAC (0.5 μM) was added after 24 h. Cells were exposed for up to 96 h before being counted by Trypan blue vital cell count (Sigma-Aldrich, Milan, Italy). In parallel, the cells were treated with DMSO-containing medium as a control. The highest final concentration of DMSO in the medium was < 0.005%, and DMSO had no effect on cell growth.
(§6) IC50 values of compounds against cellular viability were determined by using nonlinear regression fitting curves with GraphPad Prism 8 or CalcuSyn software The t test used for statistical analyses was performed with GraphPad Prism 8. All the tests were one-tailed, and a p value < 0.05 was considered statistically significant.

The next test concerns U-2OS. The description is as above. Particulars: Homo sapiens, U2OS; 96 h of treatment; read-out: IC50 ± SD, cellular viability, U-2OS. The format is cell-based.
Description: as §4, §5, §6

Another test deals with PDX-OS#1-C4. Described as above. Particulars: Homo sapiens; 96 h of treatment; read-out: IC50 ± SD, cellular viability, PDX-OS#1-C4. The format is cell-based.
Description: as §4, §5, §6

The next test relates to IOR/SARG. Described as above. In kind it is cell-based. The settings on record: Homo sapiens; 96 h of treatment; read-out: IC50 ± SD, cellular viability, IOR/SARG.
Description: as §4, §5, §6

The test system of another test is Saos-2. The description is as above. In kind it is cell-based. Particulars: Homo sapiens, 96 h of treatment, read-out: IC50 ± SD, cellular viability, Saos-2.
Description: as §4, §5, §6

The next test deals with IOR/OS9. Described as above. In kind it is cell-based. The settings on record: Homo sapiens; 96 h of treatment; read-out: IC50 ± SD, cellular viability, IOR/OS9.
Description: as §4, §5, §6

The test system of another test is MG63. The description is as above. In kind it is cell-based. Particulars: Homo sapiens, MG-63; 96 h of treatment; read-out: IC50 ± SD, cellular viability, MG63.
Description: as §4, §5, §6

For the molecule `O=C(Nc1ccc(NC(=O)c2ccc(Nc3ccnc4ccccc34)cc2)cc1)OCc1ccccc1` [MC3353, Benzyl (4-(4-(quinolin-4-ylamino)benzamido)phenyl)carbamate], the “effect on HCT116 proliferation (MTT)” value in the test with HCT116 cells is given as “markedly decreased HCT116 proliferation”. Besides, the “effect on DKO HCT116 proliferation (MTT)” value in test [1] was “markedly less efficient to impair cell proliferation”. The “MMP2 mRNA expression, HCT116” value in test [2] was “strongly downregulated”. Moreover, the “MMP2 mRNA expression, PC-3” value in the test on MMP2 mRNA in PC-3 cells is “strongly downregulated”. The IC50 with IOR/OS20 was 1.5 ± 0.1 µM; with U-2OS, 1400 ± 100 nM; in the test with PDX-OS#1-C4, 2000 ± 100 nM; in the test on IOR/SARG, 1.5 ± 0.1 µM; in the test with Saos-2 it was 1100 ± 300 nM; in the test on IOR/OS9, 2 ± 0.1 µM. The IC50 in the test with MG63 came to 2400 ± 1700 nM.
In the case of `Nc1ncn([C@H]2C[C@H](O)[C@@H](CO)O2)c(=O)n1` [DAC, 5-aza-2′-deoxycytidine, reference compound], the “effect on HCT116 proliferation (MTT)” value in the test with HCT116 cells is listed as “modest proliferation inhibition”. For the same molecule, the “effect on DKO HCT116 proliferation (MTT)” value in test [1] is listed as “No evidence of cytotoxicity”. For the same molecule, the “MMP2 mRNA expression, HCT116” value in [2] was “increased MMP2 level”. For the same molecule, the “MMP2 mRNA expression, PC-3” value in the test on MMP2 mRNA in PC-3 cells was “increased MMP2 level”. The IC50 in the test on IOR/OS20 stood at 9.2 ± 2.2 µM; in the test with U-2OS, 1100 ± 900 nM; in the test with PDX-OS#1-C4, 700 ± 600 nM; with IOR/SARG, 5.4 ± 1 µM; in the test with Saos-2, 1000 ± 900 nM; with IOR/OS9, 5.7 ± 3.4 µM. Moreover, the IC50 in the test with MG63 turned out to be 200 ± 200 nM.

These data come from paper PMC6501426 (Clinical Epigenetics, 2019).
